Laboratory results published in patent US20230047825A1, “ANTIMICROBIAL PEPTIDES” (priority 2019, published 2023).
Values after ≈ are worked out from the molar mass of the structure shown. Read-outs that look alike come from different tables or passages of the source. Where a SMILES comes first, the peptide text is derived from it.

Key:
[1] = system: EMR Staphylococcus aureus-15 (EMRSA-15); format: cell-based
[2] = system: Pseudomonas aeruginosa PA01; test: Antibacterial activity assay (broth microdilution MIC); format: cell-based
[3] = system: EMR Staphylococcus aureus-16 (EMRSA-16); format: cell-based; settings: EMRSA16
[4] = system: VR Enterococcus faecium NCTC 12204; test: Antibacterial activity assay (broth microdilution MIC); format: cell-based; settings: VRE12204, in µg/mL
[5] = system: Acinetobacter baumannii AYE; format: cell-based; settings: AYE
[6] = system: Acinetobacter baumannii ATCC 17978; format: cell-based; settings: in µg/mL; for MIC, Stability in serum (MH): Ab17978
[7] = system: C. albicans; test: MIC on initial panels, fungi; format: cell-based; settings: unit inferred
[8] = system: VS Enterococcus faecalis NCTC 775; test: Antibacterial activity assay (broth microdilution MIC); format: cell-based
[9] = system: Calu-3; test: Cytotoxicity assay; format: cell-based; settings: value printed in parentheses
[10] = system: HeLa; test: Cytotoxicity assay (XTT); format: cell-based, human; parameters: Toxicity HeLa: unit not given beside the values
Experimental: (§1) Cytotoxicity assay. HeLa and HEK293 cell lines were purchased from ECACC and cultured in Eagle's Minimum Essential Media (EMEM) containing glutamine, supplemented with 10% FBS and 1× non-essential amino acids (NEAA) at 37° C., 10% CO2. Cytotoxicity was measured by incubating starter cultures of cells for 24 hours in a 96 well plate, gently removing the supernatant and replacing it with dilutions of peptides and controls, incubating for a further 24 hours and then staining of the cells with the second generation tetrazolium dye, XTT. […]

[11] = system: VRE12201; test: Antibacterial activity assay (broth microdilution MIC); format: cell-based, Enterococcus faecalis; settings: medium and unit inferred
Description: (§2) Antibacterial activity assay.
The bacterial strains used are as in the above examples. A table of strains is provided below to aid understanding.

[12] = system: A549; test: Cytotoxicity assay; format: cell-based; settings: value printed in parentheses
[13] = system: human red blood cells; test: Haemolysis assay; settings: red cells of human, 1 h
Experimental: Haemolysis assay. Haemolysis was tested by incubating titrations of AMPs in PBS with freshly collected human red blood cells for 1 hour at 37 C. Control wells were treated with 0.1% Triton-X-100 to ensure complete lysis, or PBS-only to represent no lysis. Samples were spun down to remove non-lysed cells and the OD^550 of the supernatant was measured using a Clariostar plate reader. The percentage of haemolysis was calculated as % haemolysis=(AP−AB)/(AC−AB)×100, where AP is the absorbance value for a known peptide concentration, AC is the absorbance of the 0.1% Triton-X-100 control, AB is the absorbance of the PBS control. Data presented are averages and standard error from three biological replicate experiments.
Methods: The natural AMP (termed AMP1) was modified to produce synthetic variants, AMPs 1a, 2a, 2b, 3a and 3b. Minimum inhibitory concentrations (MICs) were determined using the microbroth dilution assay with Mueller Hinton broth (MHB) or RPMI (with 5% FBS) and stability in serum was tested by conducting MICs in MHB containing 10% FBS. Synergy experiments were performed following a checkerboard protocol. Cytotoxicity was tested against HEK293 and HeLa immortalised human cell-lines using the XTT viability stain and by quantifying haemolysis of human red blood cells. Patch clamp analysis was performed using the Port-a-Patch® automated patch-clamp system on DPhPE/DPhPG (model for a Gram-negative plasma membrane) or DPhPG (Gram-positive) model membranes challenged with peptide. The murine lung infection model was performed using the agar bead model with Staphylococcus aureus strain NCTC 13616 (EMRSA-15).

[14] = system: MS Staphylococcus aureus ATCC 9144; format: cell-based; settings: MSSA9144
[15] = system: Klebsiella pneumoniae M6; format: cell-based
[16] = system: Escherichia coli NCTC 12923; format: cell-based; settings: EC12923
[17] = system: Pseudomonas aeruginosa NCTC 13437; test: Antibacterial activity assay (broth microdilution MIC); format: cell-based; settings: PA13437, in µg/mL
[18] = system: P. aeruginosa RP73; test: as above; format: cell-based, Pseudomonas aeruginosa; settings: in µg/mL
Experimental: as §2
Synergy experiments were performed following a checkerboard protocol.

[19] = system: HEK293; test: Cytotoxicity assay (XTT); format: cell-based, human
Experimental: as §1

[20] = system: Klebsiella pneumoniae NCTC 13368; format: cell-based; settings: KP13368, in µg/mL
[21] = medium and unit not given, in µg/mL
[22] = untitled table, medium/unit inferred, values match RPMI of Table 2
[23] = untitled table, medium/unit not given, values match RPMI of Table 2
[24] = untitled table, medium/unit not given, values match RPMI of Table 2, in µg/mL

Question: What does the source list for `CC(C)C[C@@H](NC(=O)[C@@H](Cc1ccc(O)cc1)NC(=O)[C@@H](Cc1c[nH]cn1)NC(=O)[C@H](NC(=O)[C@@H](CC(C)C)NC(=O)[C@@H](C)NC(=O)[C@@H](C)NC(=O)[C@@H](CCCCN)NC(=O)CNC(=O)[C@@H](C)NC(=O)[C@@H](Cc1c[nH]cn1)NC(=O)[C@@H](CCCCN)NC(=O)CNC(=O)[C@@H](C)NC(=O)[C@@H](Cc1c[nH]cn1)NC(=O)[C@@H](C)NC(=O)[C@@H](C)NC(=O)[C@@H](CCCCN)NC(=O)[C@@H](CCCCN)NC(=O)[C@@H](Cc1ccccc1)NC(=O)[C@@H](Cc1ccccc1)NC(=O)[C@@H](CO)NC(=O)CNC(=O)[C@@H](Cc1c[nH]c2ccccc12)NC(=O)CN)[C@H](C)O)C(N)=O` [D-pleurocidin-VA] (HELM PEPTIDE1{G.[dW].G.[dS].[dF].[dF].[dK].[dK].[dA].[dA].[dH].[dA].G.[dK].[dH].[dA].G.[dK].[dA].[dA].[dL].[dT].[dH].[dY].[dL].[am]}$$$$V2.0; N-terminus assumed)?
Answer: MIC, Peptide concentration ([1]; EMR -15 (EMRSA-15)): 8 µg/mL (≈ 3.01 µM); MIC on initial panels ([1]; EMRSA15, medium and unit inferred): 32 µg/mL (≈ 12.1 µM); MIC ([1]; EMRSA15, untitled table, medium/unit inferred, values match RPMI of Table 2): 8 µg/mL (≈ 3.01 µM); MIC, Peptide concentration ([1]; Mueller-Hinton broth): 32 µg/mL (≈ 12.1 µM); MIC, Stability in serum (MH) ([2]; No serum, in µg/mL): 4; MIC, Stability in serum (MH) ([2]; Serum (10% fetal bovine serum), in µg/mL): 16; MIC on initial panels [2, 21]: 4; MIC [2, 22]: 32 µg/mL (≈ 12.1 µM); MIC on initial panels [3, 21]: 64; MIC [3, 22]: 32 µg/mL (≈ 12.1 µM); MIC on initial panels ([4]; medium and unit not given): 16; MIC [4, 23]: 32-64; MIC, Stability in serum (MH) ([5]; No serum): 1 µg/mL (≈ 0.377 µM); MIC, Stability in serum (MH) ([5]; Serum (10% fetal bovine serum)): 2 µg/mL (≈ 0.754 µM); MIC on initial panels [5, 21]: 1; MIC [5, 24]: 8-32; MIC on initial panels ([6]; AB17978, medium and unit not given): 1; MIC ([6]; AB17978, untitled table, medium/unit not given, values match RPMI of Table 2): 16; MIC, Stability in serum (MH) ([6]; No serum): 1; MIC, Stability in serum (MH) ([6]; Serum (10% fetal bovine serum)): 2-16; MIC on initial panels, Fungi [7]: 8 µg/mL (≈ 3.01 µM); MIC, Peptide concentration ([8]; Mueller-Hinton broth): 64 (NG) μg/ml; MIC on initial panels ([8]; VSE775, medium and unit not given, in µg/mL): 64; Toxicity Calu-3 (EC50), Peptide concentration [9]: (>250) μg/ml; Toxicity HeLa ([10]; unit not given): 198.2 ± 10.2; Toxicity HeLa (EC50), Peptide concentration ([10]; value printed in parentheses): (198.2 ± 10.2) μg/ml; MIC on initial panels [11]: 128 µg/mL (≈ 48.2 µM); Toxicity A549 (EC50), Peptide concentration [12]: (>250) μg/ml; Toxicity HC50, Peptide concentration [13]: >>400 μg/ml; MIC on initial panels ([14]; medium and unit inferred): 4 µg/mL (≈ 1.51 µM); MIC [14, 24]: 8; MIC, Stability in serum (MH) ([15]; No serum): 4 µg/mL (≈ 1.51 µM); MIC, Stability in serum (MH) ([15]; Serum (10% fetal bovine serum)): 8 µg/mL (≈ 3.01 µM); MIC on initial panels [15, 21]: 4; MIC [15, 24]: 32; MIC, Stability in serum (MH) ([16]; No serum): 1 µg/mL (≈ 0.377 µM); MIC, Stability in serum (MH) ([16]; Serum (10% fetal bovine serum)): 1 µg/mL (≈ 0.377 µM); MIC on initial panels [16, 21]: 1; MIC [16, 24]: 8; MIC, Stability in serum (MH) ([17]; No serum): 32; MIC, Stability in serum (MH) ([17]; Serum (10% fetal bovine serum)): 32; MIC on initial panels ([17]; medium and unit not given): 32; MIC [17, 23]: >32; MIC on initial panels ([18]; medium and unit not given): 16-64; MIC ([18]; untitled table, medium/unit not given): 32-64; Toxicity HEK293 ([19]; unit not given): 217.3 ± 46.5; Toxicity HEK293 (EC50), Peptide concentration ([19]; value printed in parentheses): (217.3 ± 46.5) μg/ml; MIC, Stability in serum (MH) ([20]; No serum): 8; MIC, Stability in serum (MH) ([20]; Serum (10% fetal bovine serum)): 8-32; MIC on initial panels ([20]; medium and unit not given): 8; MIC [20, 23]: 32
